# Measured values taken from patent US4707491A, “Anticonvulsant γ-thiobutyrolactone derivatives” (Washington University, priority 1985, dated 1987).
# Read-outs that look alike come from different tables or passages of the source.
# What was measured:
# [1] = system: maximal electroshock seizures; experiment: Maximal Electroshock Seizure Test; format: in vivo, mice; conditions: for anti-MES activity: comparison of anticonvulsant profiles
# Experimental: One recognized test which is frequently used for this purpose is to determine the capacity of the drug to modify the effects of maximal electric shock (MES) by inhibition of tonic hindlimb extension. See, for example, the test described by Swinyard and co-workers at J. Pharmacol. Exper. Therap. 106, 319-330 (1952).
# (§1) Compounds were tested for anticonvulsant activity and toxicity in mice by the following tests.
# Maximal Electroshock Seizure Test
# At the time of peak effect of the test substance, a drop of 0.9% sodium chloride is applied to the eyes of each animal. Corneal electrodes are applied to the eyes, and an electrical stimulus of 50 mA is delivered for 0.2 sec. The animals are held by hand and released at the time of stimulation for observation of the seizure. Abolition of the hindleg tonic extension component is taken as the endpoint for this test.
# [2] = system: pentylenetetrazol seizures; experiment: Pentylenetetrazol Seizure Threshold Test; format: in vivo; conditions: Mus musculus, mice
# Experimental: See, for example, Krall et al., Epilepsia 19, 409-428 (1978).
# as §1
# Pentylenetetrazol Seizure Threshold Test
# The animals are placed in isolation cages and observed for the next 30 min. for the presence or absence of a seizure. A threshold convulsion is defined as one episode of clonic spasms that persists for at least a 5-sec period.
# [3] = Rotorod Test for Toxicity; conditions: mouse, in vivo; mice; rotorod at 6 rpm, 10 min; at time of peak effect
# Experimental: The rotorod test is a standard method used in mice to access neurotoxicity and is described, for example, by Krall et al., Epilepsia 19, 409-428 (1978).
# as §1
# Rotorod Test for Toxicity
# This test is used in mice to assess neurotoxicity. Mice are placed on the rotorod, which rotates at 6 rpm, and tested for maintenance of their equilibrium for 10 min. All mice are pre-tested before test substance is given. At the time of peak effect of the test substance, mice are put back on the rotorod for 10 min. Neurological deficit (toxicity) is indicated by the inability of the animal to maintain its equilibrium for 10 min. on this rotating rod.
# [4] = read-out: ED50 against (clonic) seizures produced by 85 mg/kg pentylenetetrazol, 85 mg/kg pentylenetetrazol IP, clonic (threshold) seizures
Structure (SMILES),anti-MES activity [1],"ED50 [2, 4]","ED50 ([1]; Mus musculus, read-out: ED50 against maximal electroshock seizures (MES))",TD50 [3],"ED50 ([2]; read-out: ED50 against clonic seizures produced by 100 mg/kg pentylenetetrazol, 100 mg/kg pentylenetetrazol IP, clonic seizures)","ED50 ([2]; read-out: ED50 against tonic seizures produced by 100 mg/kg pentylenetetrazol, 100 mg/kg pentylenetetrazol IP, tonic seizures)","protection against maximal electroshock seizures ([1]; mice, at doses up to 350 mg/kg)"
CCCC(CCC)C(=O)O [valproic acid],have anti-MES activity,,,,,,
CCC1(C)CC(=O)NC1=O (centres unmarked) [ethosuximide],do not,,,,,,
CC(C)C1CCSC1=O (stereo not drawn) [α-isopropyl-γ-thiobutyrolactone],,137 mg/kg,240 mg/kg,278 mg/kg,,,
"CCC1(C)CCOC1=O (stereo not drawn) [α-EMBL, α-ethyl-α-methyl-γ-butyrolactone]",do not,226 mg/kg,,~350 mg/kg,304 mg/kg,250 mg/kg,No protection
